Measured values reported in ChEMBL document CHEMBL3352057, “Novel fluorinated pyrrolo[1,2-a]pyrazine-2,6-dione derivatives: synthesis and anticonvulsant evaluation in animal models of epilepsy” (Bioorg Med Chem, 2014).
Activity calls are given as the source filed them. No cut-off for these calls is given here.

What was measured:
Mus musculus [1] = assay: Anticonvulsant activity in albino CF1 mouse assessed as protection against maximal electroshock-induced seizures at 100 mg/kg, ip measured after 0.5 hr; type: functional, organism-based; design: dose 100 mg/kg
Mus musculus [2] = assay: Anticonvulsant activity in albino CF1 mouse assessed as protection against 44 mA current-induced seizures at 100 mg/kg, ip measured after 2 hrs; type: functional, organism-based; design: dose 100 mg/kg
Rattus norvegicus [3] = assay: Anticonvulsant activity in ip dosed hippocampal kindled albino Sprague-Dawley rat seizure model; type: functional; settings: Hippocampus
Rattus norvegicus [4] = assay: Anticonvulsant activity in Sprague-Dawley rat assessed as protection against maximal electroshock-induced seizures at 30 mg/kg, po measured after 0.5 hr; type: functional, organism-based; design: dose 30 mg/kg
Mus musculus [5] = assay: Anticonvulsant activity in ip dosed corneal kindled albino CF1 mouse seizure model; type: functional
Mus musculus [6] = assay: Anticonvulsant activity in albino CF1 mouse assessed as protection against iv infusion metrazol-induced seizures measured as time to twitch at 79 mg/kg, ip (reference value: 26.6 seconds); type: functional
Mus musculus [7] = assay: Anticonvulsant activity in albino CF1 mouse assessed as protection against iv infusion metrazol-induced seizures measured as weight at 79 mg/kg, ip (reference value: 26.75 grams); type: functional
[8] = Protective index, ratio of TD50 for neurotoxicity in ip dosed Sprague-Dawley rat to ED50 for anticonvulsant activity in ip dosed MES Sprague-Dawley rat model; type: toxicity, organism-based; settings: in vivo, read-out: Ratio TD50/ED50
Mus musculus [9] = assay: Anticonvulsant activity in ip dosed albino CF1 mouse assessed as protection against 44 mA current-induced seizures; type: functional
Mus musculus [10] = assay: Anticonvulsant activity in albino CF1 mouse assessed as protection against iv infusion metrazol-induced seizures measured as clonus at 79 mg/kg, ip (reference value: 31.1 mg/kg); type: functional
Rattus norvegicus [11] = assay: Neurotoxicity in MES Sprague-Dawley rat model at 30 mg/kg, ip measured after 0.5 hr; type: toxicity, organism-based; design: dose 30 mg/kg, route intraperitoneal; settings: in vivo
Mus musculus [12] = assay: Anticonvulsant activity in albino CF1 mouse assessed as protection against 44 mA current-induced seizures at 100 mg/kg, ip measured after 4 hrs; type: functional, organism-based; design: dose 100 mg/kg
Mus musculus [13] = assay: Anticonvulsant activity in ip dosed corneal kindled albino CF1 mouse seizure model assessed as time to peak effect; type: functional
Rattus norvegicus [14] = assay: Anticonvulsant activity in Sprague-Dawley rat assessed as protection against maximal electroshock-induced seizures at 30 mg/kg, ip measured after 0.25 hr; type: functional, organism-based; design: dose 30 mg/kg
Rattus norvegicus [15] = assay: Neurotoxicity in MES Sprague-Dawley rat model at 30 mg/kg, ip measured after 1 hr; type: toxicity, organism-based; design: dose 30 mg/kg, route intraperitoneal; settings: in vivo
Rattus norvegicus [16] = assay: Anticonvulsant activity in ip dosed Sprague-Dawley rat assessed as protection against maximal electroshock-induced seizures; type: functional
Mus musculus [17] = assay: Neurotoxicity in albino CF1 mouse at 100 mg/kg, ip measured after 4 hrs; type: toxicity, organism-based; design: dose 100 mg/kg, route intraperitoneal; settings: in vivo
Mus musculus [18] = assay: Neurotoxicity in 32 mA current-induced seizure albino CF1 mouse model at 100 mg/kg, ip measured after 4 hrs; type: toxicity, organism-based; design: dose 100 mg/kg, route intraperitoneal; settings: in vivo
Mus musculus [19] = assay: Anticonvulsant activity in albino CF1 mouse assessed as protection against 32 mA current-induced seizures at 100 mg/kg, ip measured after 1 hr; type: functional, organism-based; design: dose 100 mg/kg
Rattus norvegicus [20] = assay: Anticonvulsant activity in Sprague-Dawley rat assessed as protection against maximal electroshock-induced seizures at 30 mg/kg, po measured after 2 hrs; type: functional, organism-based; design: dose 30 mg/kg
Rattus norvegicus [21] = assay: Anticonvulsant activity in Sprague-Dawley rat assessed as protection against maximal electroshock-induced seizures at 30 mg/kg, po measured after 4 hrs; type: functional, organism-based; design: dose 30 mg/kg
Mus musculus [22] = assay: Neurotoxicity in 44 mA current-induced seizure albino CF1 mouse model at 100 mg/kg, ip measured after 2 hrs; type: toxicity, organism-based; design: dose 100 mg/kg, route intraperitoneal; settings: in vivo
Mus musculus [23] = assay: Anticonvulsant activity in albino CF1 mouse assessed as protection against maximal electroshock-induced seizures at 100 mg/kg, ip measured after 0.25 hr; type: functional, organism-based; design: dose 100 mg/kg
Rattus norvegicus [24] = assay: Neurotoxicity in MES Sprague-Dawley rat model at 30 mg/kg, po measured after 0.5 hr; type: toxicity, organism-based; design: dose 30 mg/kg, route oral; settings: in vivo
Rattus norvegicus [25] = assay: Neurotoxicity in MES Sprague-Dawley rat model at 30 mg/kg, po measured after 4 hrs; type: toxicity, organism-based; design: dose 30 mg/kg, route oral; settings: in vivo
Mus musculus [26] = assay: Neurotoxicity in 32 mA current-induced seizure albino CF1 mouse model at 100 mg/kg, ip measured after 0.5 hr; type: toxicity, organism-based; design: dose 100 mg/kg, route intraperitoneal; settings: in vivo
Rattus norvegicus [27] = assay: Neurotoxicity in MES Sprague-Dawley rat model at 30 mg/kg, po measured after 1 hr; type: toxicity, organism-based; design: dose 30 mg/kg, route oral; settings: in vivo
Mus musculus [28] = assay: Neurotoxicity in 32 mA current-induced seizure albino CF1 mouse model at 100 mg/kg, ip measured after 2 hrs; type: toxicity, organism-based; design: dose 100 mg/kg, route intraperitoneal; settings: in vivo
Rattus norvegicus [29] = assay: Neurotoxicity in MES Sprague-Dawley rat model at 30 mg/kg, ip measured after 2 hrs; type: toxicity, organism-based; design: dose 30 mg/kg, route intraperitoneal; settings: in vivo
Rattus norvegicus [30] = assay: Anticonvulsant activity in Sprague-Dawley rat assessed as protection against maximal electroshock-induced seizures at 30 mg/kg, po measured after 0.25 hr; type: functional, organism-based; design: dose 30 mg/kg
Rattus norvegicus [31] = assay: Neurotoxicity in MES Sprague-Dawley rat model at 30 mg/kg, ip measured after 0.25 hr; type: toxicity, organism-based; design: dose 30 mg/kg, route intraperitoneal; settings: in vivo

Q: With `O=C1NC(=O)[C@@H]2CCCN2[C@H]1c1cccc(OC(F)(F)F)c1` as the compound, how does the Activity (Mus musculus [1]) read?
A: Active

Q: And the Activity (Mus musculus [2])?
A: inactive

Q: What about the ED50 (Rattus norvegicus [3]) of the same compound?
A: 48 µmol/kg

Q: And the Activity (Rattus norvegicus [4])?
A: inactive

Q: What about the ED50 (Mus musculus [5]) of the same compound?
A: 171 µmol/kg

Q: What about the Time (Mus musculus [6]) of the same compound?
A: 63.1 s

Q: What about the Activity (Mus musculus [7]) of the same compound?
A: 27.6 g

Q: And the selectivity ratio [8]?
A: 2.8

Q: And the ED50 (Mus musculus [9])?
A: 171 µmol/kg

Q: And the Activity (Mus musculus [10])?
A: 97.2 mg/kg

Q: What about the Activity (Rattus norvegicus [11]) of the same compound?
A: Non-toxic

Q: What about the Activity (Mus musculus [12]) of the same compound?
A: inactive

Q: What about the Time (Mus musculus [13]) of the same compound?
A: 0.25 h

Q: What about the Activity (Rattus norvegicus [14]) of the same compound?
A: Active

Q: What about the Activity (Rattus norvegicus [15]) of the same compound?
A: Non-toxic

Q: And the ED50 (Rattus norvegicus [16])?
A: 40 µmol/kg

Q: And the Activity (Mus musculus [17])?
A: Non-toxic

Q: And the Activity (Mus musculus [18])?
A: Non-toxic

Q: What about the Activity (Mus musculus [19]) of the same compound?
A: Active

Q: What about the Activity (Rattus norvegicus [20]) of the same compound?
A: inactive

Q: What about the Activity (Rattus norvegicus [21]) of the same compound?
A: inactive

Q: And the Activity (Mus musculus [22])?
A: Non-toxic

Q: And the Activity (Mus musculus [23])?
A: Active

Q: What about the Activity (Rattus norvegicus [24]) of the same compound?
A: Non-toxic

Q: What about the Activity (Rattus norvegicus [25]) of the same compound?
A: Non-toxic

Q: What about the Activity (Mus musculus [26]) of the same compound?
A: Non-toxic

Q: And the Activity (Rattus norvegicus [27])?
A: Non-toxic

Q: What about the Activity (Mus musculus [28]) of the same compound?
A: Non-toxic

Q: What about the Activity (Rattus norvegicus [29]) of the same compound?
A: Non-toxic

Q: What about the Activity (Rattus norvegicus [30]) of the same compound?
A: inactive

Q: And the Activity (Rattus norvegicus [31])?
A: Non-toxic
